Data taken from article PMC11539218 (Antimicrobial Agents and Chemotherapy, 2024).

Key:
[1] = system: L. (L.) infantum promastigotes; assay: Mitochondrial membrane electric potential (JC-1, flow cytometry); assay type: cell-based, Leishmania (L.) infantum; details: compound 1 169.2 µM, CCCP 10 µM; 2 and 4 h; JC-1 BL-2/BL-1 ratio; vs untreated
Description: Promastigotes (2 × 10^6/well) were treated with compound 1 (169.2 µM) for 2 and 4 h, at 24°C. Then, JC-1 (10 µM) was added and the parasites were incubated for 20 min. Fluorescence was measured in a flow cytometer with an excitation wavelength of 488 nm and emission of 530 (BL-1) and 574 nm (BL-2). Mitochondrial membrane potential was established through the ratio of BL-2/BL-1 channels ([19]). Carbonyl cyanide m-chlorophenylhydrazone (CCCP) (10 µM) was employed as positive control and untreated parasites as negative control.

[2] = Stability in plasma under handling and storage conditions (HPLC); assay type: in vitro ADME
Description: (§1) The detection and quantification of compound 1 in the blood matrices were performed after sample processing, using a liquid-liquid extraction methodology. First, 100 µL of plasma was enriched with 10 µL of PI (0.8 µg/mL). Subsequently, 500 µL of hexane was added and the mixture was vortexed for 1 min and centrifuged at 22,082 × g for 5 min. The organic phase was collected in glass tubes and the aqueous phase was subjected to the liquid-liquid extraction procedure again. In the end, the combined organic samples were completely evaporated at 60°C under nitrogen flow and reconstituted in 100 µL of 40:60 ACN:H2O + 0.1% orthophosphoric acid (pH 2.08). Finally, the extracts were centrifuged at 22,082 × g for 2 min and injected into the chromatographic system. Chromatographic analyses by HPLC were performed using a C18 column (Purospher Star LiChroCART, 55 × 4 mm, 3 µm) with gradient elution (Table 1).
Method validation was performed following the guidelines for bioanalytical methods validation of the Food and Drug Administration and European Medicines Agency ([29], [30]). Thus, the acceptance criteria set out in these guides were adopted for the parameters of selectivity, linearity, precision, accuracy, lower limit of quantification (LLOQ), and stability. Quality controls of the lower limit of quantification (QCLOQ—0.03 µg/mL), low (QC1—0.08 µg/mL), medium (QC2—2 µg/mL), and high (QC3—5 µg/mL), were also established in accordance with the guides. […] In addition, stability was established after exposure to different conditions, mimicking storage and handling throughout the experimental process (Table 2).

[3] = system: L. (L.) infantum promastigotes; assay: Ultrastructural studies (transmission electron microscopy); assay type: cell-based, Leishmania (L.) infantum; details: 169.2 µM, TEM
Description: Promastigotes (3 × 10^7 parasites/well) were treated with compound 1 (169.2 µM) for 2, 4, and 6 h at 24°C. Subsequently, parasites were fixed in glutaraldehyde solution (2.5% wt/vol) and post-fixed in osmium tetroxide (1% wt/vol). The samples were gradually dehydrated in acetone and embedded in Epon 812 resin. Ultrathin sections were stained with uranyl acetate and lead citrate ([27]). The material was analyzed under a transmission electron microscope (JEOL JEM-1011). Untreated parasites were employed as a negative control.

[4] = system: L. (L.) infantum promastigotes; assay: Adenosine triphosphate levels (luciferase bioluminescence); assay type: cell-based, Leishmania (L.) infantum; details: 169.2 µM; 2 and 4 h; vs untreated parasites
Description: Promastigotes (2 × 10^6/well) were treated with compound 1 (169.2 µM) for 2 and 4 h, at 24°C. Subsequently, the parasites were lysed with Triton X-100 (0.5%) and mixed with ATP Determination Kit standard reaction buffer (1 mM DTT, 0.5 mM luciferin, and 1.25 µg/mL luciferase), according to the manufacturer’s instructions. […] CCCP (10 µM) was employed as positive control and untreated parasites as negative control.

[5] = system: L. (L.) infantum promastigotes; assay: Intracellular Ca2+ (Fluo-4 AM); assay type: cell-based, Leishmania (L.) infantum; details: 169.2 µM, from 20 min up to 4 h, vs untreated
Description: Promastigotes (2 × 10^6/well) were pretreated with Fluo-4 AM (5 µM) in PBS, for 1 h at 24°C. Then, parasites were treated with compound 1 (169.2 µM). Fluorescence was measured every 20 min up to 4 h in a spectrofluorometer, with excitation and emission wavelengths of 485 nm and 535 nm, respectively ([21]). Triton X-100 0.5% (vol/vol) was employed as positive control and untreated parasites as negative control.

[6] = In vivo pharmacokinetic study, intraperitoneal; parameters: species or system Wistar rats; details: 5 mg/kg intraperitoneal; for half-life: 5 mg/kg
Description: as §1
Compound 1 (5 mg/kg) was administered (10 mL/kg in saline-sodium-chloride-0.9%) by intraperitoneal route, to six Wistar rats. Blood samples were collected from the caudal vein at 30 min, 1, 2, 3, 5, 6, 8, 12, and 24 h post-dosing. Plasma samples were prepared as described in the previous section and analyzed by HPLC. Concentrations below the LLOQ were considered as zero. Pharmacokinetic profile was obtained using the WinNonlin 6.4 software, determining different parameters, including half-life time (T½); maximum time (Tmax); maximum plasma concentration (Cmax); area under the curve from time zero to the last measurable concentration time (AUC0-t); area under the curve from zero to infinity (AUC0-inf); percentage of area under the curve extrapolated from the last measurable concentration time to infinity (AUCextrap); and meantime of residence (MRT).

[7] = Wistar, rat, plasma, ip, female rats
[8] = Wistar, rat, plasma, ip, male rats
[9] = both sexes, rat, plasma, ip, single dose, Wistar rats, males + females (mean ± SD)

With `C=CCc1cc(OC)c(OCc2ccc(OC)cc2)c(Oc2ccc(CN3CCOCC3)cc2OC)c1` [compound 1, 4-(4-(5-allyl-3-methoxy-2-((4-methoxybenzyl)oxy)phenoxy)-3-methoxybenzyl)morpholine] the “mitochondrial membrane electric potential (ΔΨm)” value [1] was “significant depolarization”, the “Stability/reference analyte concentration (%)” value ([2]; 0.08 µg/mL, processed sample, 2 h at room temperature) was 98.35% and the “Stability/reference analyte concentration (%)” value ([2]; 0.08 µg/mL, processed sample, 24 h at 4°C) was 99.12%. The “Stability/reference analyte concentration (%)” value ([2]; 0.08 µg/mL, unprocessed sample, 2 h at room temperature) was 86.54%, the “Stability/reference analyte concentration (%)” value ([2]; 0.08 µg/mL, unprocessed sample, 6 h at 4°C) was 91.74% and the “Stability/reference analyte concentration (%)” value ([2]; 0.08 µg/mL, unprocessed sample, 24 h at 4°C) was 87.07%. The “Stability/reference analyte concentration (%)” value ([2]; 0.08 µg/mL, unprocessed sample, 15 days at −20°C) was 85.36%, the “Stability/reference analyte concentration (%)” value ([2]; 0.08 µg/mL, unprocessed sample, 30 days at −20°C) was 92.66% and the “Stability/reference analyte concentration (%)” value ([2]; 0.08 µg/mL, unprocessed sample, freezing/thawing) was 88.58%. For the same compound, the “Stability/reference analyte concentration (%)” value ([2]; 5.00 µg/mL, processed sample, 2 h at room temperature) was 100.43%, the “Stability/reference analyte concentration (%)” value ([2]; 5.00 µg/mL, processed sample, 24 h at 4°C) was 98.84% and the “Stability/reference analyte concentration (%)” value ([2]; 5.00 µg/mL, unprocessed sample, 2 h at room temperature) was 90.90%. For the same compound, the “Stability/reference analyte concentration (%)” value ([2]; 5.00 µg/mL, unprocessed sample, 6 h at 4°C) was 95.92%, the “Stability/reference analyte concentration (%)” value ([2]; 5.00 µg/mL, unprocessed sample, 24 h at 4°C) was 91.65% and the “Stability/reference analyte concentration (%)” value ([2]; 5.00 µg/mL, unprocessed sample, 15 days at −20°C) was 90.53%. For the same compound, the “Stability/reference analyte concentration (%)” value ([2]; 5.00 µg/mL, unprocessed sample, 30 days at −20°C) was 93.24%, the “Stability/reference analyte concentration (%)” value ([2]; 5.00 µg/mL, unprocessed sample, freezing/thawing) was 97.49% and the ultrastructural alterations ([3]; 2 h) was “increased volume of the mitochondria”. The ultrastructural alterations ([3]; all studied times (2, 4, 6 h)) was “autophagic vacuoles were observed in the cytoplasm”, the ultrastructural alterations ([3]; later times of incubation (4 h, 6 h)) was “losses of mitochondrial cristae” and the ATP concentration [4] was “significant reduction”. For the same compound, the “intracellular Ca2+ level” value [5] was “fast and increased Ca^2+ level”, the T1/2 ([6]; single dose, Wistar rats, males + females (mean ± SD)) was 21.08 ± 17.72 h and the AUC(0-t) [6, 7] was 980 ng·h/mL. It also gave a Cmax [6, 7] of 200 ng/mL, an MRT [6, 7] of 12.8 h and a Tmax [6, 7] of 0.5 h. The AUC(0-t) [6, 8] was 650 ng·h/mL, the Cmax [6, 8] was 100 ng/mL and the MRT [6, 8] was 41.1 h. For the same compound, the Tmax [6, 8] was 1.5 h, the half-life ([6]; both sexes, Wistar, rat, plasma, ip, single dose, Wistar rats, males + females (mean ± SD)) was 21 h and the AUC(0-inf) [6, 9] was 1270 ± 340 ng·h/mL. For the same compound, the AUC(0-t) [6, 9] was 810 ± 300 ng·h/mL, the Cmax [6, 9] was 150 ± 80 ng/mL and the MRT [6, 9] was 26.9 ± 23.2 h. For the same compound, the Tmax [6, 9] was 1 ± 1.22 h, the half-life ([6]; female, Wistar, rat, plasma, ip, female rats) was 10.7 h and the half-life ([6]; male, Wistar, rat, plasma, ip, male rats) was 31.4 h.
